In patent US7226949B2, “Compounds of use in the treatment of epilepsy, seizure, and electroconvulsive disorders” (University of Kentucky, priority 2002, dated 2007):

Key:
rats = test: Minimal neurotoxicity in rats, positional sense and gait and stance tests; format: in vivo; conditions: 1 hour (time to peak effect) after oral administration
Text: If the rat experiences neurological toxicity, it will not be able to quickly lift its leg quickly back to a normal position.
In the gait and stance test, neurotoxicity is indicated by a circular or zigzag gait after administration of the test compound. In addition, ataxia, abnormal spread of the legs, abnormal posture, tremor hyperactivity, lack of exploratory behavior, somnolence, stupor, or catalepsy can indicate neurotoxicity.

[1] = test system: focal seizures in hippocampal kindled rats; test: Hippocampal kindling model; format: in vivo, Sprague-Dawley rats; design: key to Racine Seizure Score ± SEM: Racine stage 1 to 5; conditions: for Afterdischarge Duration ± SEM / Racine Seizure Score ± SEM: rats, 100 mg/kg, n=7
Text: Hippocampal Kindling Model
The hippocampal kindling model is an experimental seizure model used to simulate focal seizures. This model evaluates the capacity of a compound to affect both the expression and acquisition of focal seizures. In addition, kindled seizures provide a methodology for studying complex brain networks that may contribute to the spread and generalizations of seizures from a focus. The hippocampal kindling model has the advantage of being one of the only kindling models that can evaluate the temporal effects of an agent in a single animal. For this assessment, bipolar electrodes are surgically implanted in the ventral hippocampus of adult male Sprague-Dawley rats (275-300 g) under ketamine-xylazine anesthesia. Following a one-week recovery period, stage five behavioral seizures are induced by stimulating the rat 12 times per day with 50 Hz, 10 s train of 1 ms biphasic 200 μA pulses delivered every 30 min for six hours on alternating days. After five stimulus days, the animal has had 60 stimulations. A drug free control period with supramaximal stimulations is used to verify the stability of a stage five generalized seizure before the anticonvulsant activity of a drug is measured.
This screen is used to measure the capacity of the drug to prevent the expression of focal seizures. […] The animal is exposed to an initial stimulation of 20 μA; the stimulation is increased in 10 μA increments every one-two minutes until an afterdischarge is recorded. After the stability of the stage five seizure is established, the drug candidate is administered to the rats via intraperitoneal injection 15 minutes after the last control stimulation. Starting with the first dose, the anticonvulsant activity of the test agent is measured every thirty minutes for four hours. Following each stimulation, Racine seizure scores and afterdischarge durations are compared to control values to quantify the anti-convulsant activity of the agent. The Racine seizure scores vary from stage 1 to 5. The stages are characterized according to the following criteria: Stage 1—mouth and facial clonus, Stage 2—stage 1 and head nodding, Stage 3—stage 2 and forelimb clonus, Stage 4—stage 3 and rearing, Stage 5—stage 4 and repeated rearing and falling. Since a single animal is used, each rat serves as its own control.
4,4′-Thiodianiline was used in the rat hippocampal kindled rats to screen to measure its anticonvulsant potential. Doses of 12.5, 25, 50 and 100 mg/kg were evaluated at a minimum of seven time points (n=7 for each dose and each time point). […] After oral administration of the test compound stimulation, the Racine seizure scores and afterdischarge durations were measured and are shown below. The Racine seizure scores dropped from between a stage 4 and stage 5 seizure for control measurements to between a stage 1 and stage 2 seizure after treatment with 4,4′-thiodianiline.

6 Hz seizures = test: 6 Hz kindling model; format: in vivo, mice
Description: The 6 Hz kindling model is another experimental seizure model that effectively detects compounds with anti-seizure activity. This screen is used to evaluate the ability of a compound to prevent the acquisition of focal seizures; in particular, the capacity of a compound to prevent the development of seizures induced by a low-frequency (6 Hz), long duration (three seconds) stimulus in electrode […] is evaluated. Several of the most promising compounds were evaluated in this screen to further characterize their anti-seizure activity.
In the 6 Hz kindling test, mice are implanted with corneal electrodes. The test compound is administered (i.p.) to the animal at 0.25, 0.5, 1, 2, or 4 hours prior seizure induction. The seizure is initiated by delivering a current (32 mA at 6 Hz for three seconds) to the animal through the corneal electrodes. The resulting psychomotor seizure is usually characterized by a minimal clonic phase followed by stereotyped, automatistic behaviors. This response is analogous to the aura of human patients with partial seizures.

mice = test: Minimal neurotoxicity in mice, rotorod test; conditions: up to four hours after dosing, doses as high as 300 mg/kg
Description: In mice, the test compound is administered at doses of 30, and 100 mg/kg prior to evaluation in the toxicity screens. The mice are tested at 0.5 hours and 4 hours after intraperitoneal administration of the test compound.
Toxicity in mice weighing between 18 and 25.5 g is assessed using the standardized rotorod test [9]. For each compound tested, a minimum of 18 animals are evaluated for neurotoxicity. Control mice can maintain their equilibrium for an extended period of time when they are placed on a 6-rpm rotation rod. Neurologically impaired animals cannot maintain equilibrium for one minute in each of three successive trials.

MES-induced seizure [2] = test: Maximal Electroshock Seizure (MES) test in rats, oral administration; format: in vivo; conditions: for Percentage of rats in which the test compound prevented MES-induced seizure: 30 mg/kg oral
Text: (§1) The Maximal Electroshock Seizure (MES) or Maximal Seizure Pattern Test
(§2) The MES is an experimental model for generalized tonic-clonic seizures that identifies compounds that prevent seizure spread. The MES model is highly reproducible and has a consistent endpoint. An advantage of this model is that the behavioral and electrographic seizures are consistent with those observed in humans.
(§3) In the MES test, the animal receives an electrical stimulus, 0.2 seconds in duration, via corneal electrodes primed with an electrolyte solution containing an anesthetic agent. The 0.2 second stimulation is generated with 150 mA in rats and 50 mA in mice at 60 Hz. […] In rats, the compound is administered orally, while mice receive the agent via intraperitoneal injection. The test endpoint, electrogenic seizure, is manifested as hindlimb tonic extension.
A full dose-response curve was also generated in rats to determine the ED50 value (n=8 at each time point). […] The ED50 of 4,4′-thiodianiline was evaluated in both rats and mice.

MES-induced seizure [3] = test: Maximal Electroshock Seizure (MES) test in mice, intraperitoneal administration; format: in vivo
Text: as §1, §2, §3

[4] = 30 mg/kg i.p., 0.5 h after administration
[5] = 100 mg/kg i.p., 0.5 h after administration
[6] = 100 mg/kg i.p., 4.0 h after administration

Nc1ccc(Sc2ccc(N)cc2)cc1 [4,4′-thiodianiline]
ED50 for toxicity relative to ED50 for anti-convulsant activity (rats): ~60 times | ED50 ([1]; Rattus norvegicus, hippocampal kindled rats, from doses of 12.5, 25, 50 and 100 mg/kg, read-out: ED50, dose required to prevent the expression of focal seizures): 51.4 mg/kg | Afterdischarge Duration ± SEM ([1]; 15 min): 19.14 ± 9.58 s | Racine Seizure Score ± SEM ([1]; 15 min): 1.43 ± 0.81 | Afterdischarge Duration ± SEM ([1]; 45 min): 25.29 ± 13.71 s | Racine Seizure Score ± SEM ([1]; 45 min): 1.29 ± 0.84 | Afterdischarge Duration ± SEM ([1]; 75 min): 24.86 ± 11.43 s | Racine Seizure Score ± SEM ([1]; 75 min): 0.71 ± 0.57 | Afterdischarge Duration ± SEM ([1]; 105 min): 33.29 ± 14.17 s | Racine Seizure Score ± SEM ([1]; 105 min): 1.29 ± 0.64 | Afterdischarge Duration ± SEM ([1]; 135 min): 34.71 ± 14.35 s | Racine Seizure Score ± SEM ([1]; 135 min): 1.57 ± 0.81 | Afterdischarge Duration ± SEM ([1]; 165 min): 57.43 ± 18.17 s | Racine Seizure Score ± SEM ([1]; 165 min): 1.57 ± 0.65 | Afterdischarge Duration ± SEM ([1]; 195 min): 55.29 ± 18.19 s | Racine Seizure Score ± SEM ([1]; 195 min): 1.57 ± 0.69 | Afterdischarge Duration ± SEM ([1]; 225 min): 71.29 ± 18.99 s | Racine Seizure Score ± SEM ([1]; 225 min): 1.86 ± 0.70 | Afterdischarge Duration ± SEM ([1]; 255 min): 65.43 ± 17.91 s | Racine Seizure Score ± SEM ([1]; 255 min): 1.86 ± 0.63 | Percentage of mice in which the test compound prevented seizure in the 6 Hz test (6 Hz seizures; 30 mg/kg i.p., 0.25 h after administration): 0% | Percentage of mice in which the test compound prevented seizure in the 6 Hz test (6 Hz seizures; [4]): 25% | Percentage of mice in which the test compound prevented seizure in the 6 Hz test (6 Hz seizures; 30 mg/kg i.p., 1.0 h after administration): 25% | Percentage of mice in which the test compound prevented seizure in the 6 Hz test (6 Hz seizures; 30 mg/kg i.p., 2.0 h after administration): 25% | Percentage of mice in which the test compound prevented seizure in the 6 Hz test (6 Hz seizures; 80 mg/kg i.p., 0.25 h after administration): 100% | Percentage of mice in which the test compound prevented seizure in the 6 Hz test (6 Hz seizures; 80 mg/kg i.p., 0.5 h after administration): 100% | Percentage of mice in which the test compound prevented seizure in the 6 Hz test (6 Hz seizures; 80 mg/kg i.p., 1.0 h after administration): 100% | Percentage of mice in which the test compound prevented seizure in the 6 Hz test (6 Hz seizures; 80 mg/kg i.p., 2.0 h after administration): 75% | Percentage of mice in which the test compound prevented seizure in the 6 Hz test (6 Hz seizures; 80 mg/kg i.p., 4.0 h after administration): 0% | Percentage of mice in which the test compound prevented seizure in the 6 Hz test (6 Hz seizures; 100 mg/kg i.p., 0.25 h after administration): 100% | Percentage of mice in which the test compound prevented seizure in the 6 Hz test (6 Hz seizures; [5]): 100% | Percentage of mice in which the test compound prevented seizure in the 6 Hz test (6 Hz seizures; 100 mg/kg i.p., 1.0 h after administration): 100% | Percentage of mice in which the test compound prevented seizure in the 6 Hz test (6 Hz seizures; 100 mg/kg i.p., 2.0 h after administration): 100% | Percentage of mice in which the test compound prevented seizure in the 6 Hz test (6 Hz seizures; [6]): 0% | ED50 (6 Hz seizures; Mus musculus, ip, read-out: ED50 (6 Hz seizures)): 30 to 80 mg/kg | acute neurotoxicity as measured by the rotorod test (mice): No acute neurotoxicity was observed | Percentage of rats in which the test compound prevented MES-induced seizure (MES-induced seizure [2]; 0.25 h after administration): 100% | Percentage of rats in which the test compound prevented MES-induced seizure (MES-induced seizure [2]; 0.5 h after administration): 100% | Percentage of rats in which the test compound prevented MES-induced seizure (MES-induced seizure [2]; 1.0 h after administration): 100% | Percentage of rats in which the test compound prevented MES-induced seizure (MES-induced seizure [2]; 2.0 h after administration): 100% | Percentage of rats in which the test compound prevented MES-induced seizure (MES-induced seizure [2]; 4.0 h after administration): 100% | ED50 (MES-induced seizure [2]; Rattus norvegicus, po, read-out: ED50 required to inhibit MES-induced seizure): 6.6 ± 5.07 mg/kg | Time to Peak Effect (MES-induced seizure [2]; rat, oral administration, MES test): 1 h | Percentage of mice in which the test compound prevented MES-induced seizure (MES-induced seizure [3]; [4]): 0% | Percentage of mice in which the test compound prevented MES-induced seizure (MES-induced seizure [3]; 30 mg/kg i.p., 4.0 h after administration): 0% | Percentage of mice in which the test compound prevented MES-induced seizure (MES-induced seizure [3]; [5]): 66% | Percentage of mice in which the test compound prevented MES-induced seizure (MES-induced seizure [3]; [6]): 100% | Percentage of mice in which the test compound prevented MES-induced seizure (MES-induced seizure [3]; 300 mg/kg i.p., 0.5 h after administration): 100% | Percentage of mice in which the test compound prevented MES-induced seizure (MES-induced seizure [3]; 300 mg/kg i.p., 4.0 h after administration): 100% | ED50 (MES-induced seizure [3]; Mus musculus, ip, 0.5 h, read-out: ED50 (MES)): 53.4 ± 14.9 mg/kg
